Source: PMC4492764, “Evaluation of biomarkers for in vitro prediction of drug-induced nephrotoxicity: comparison of HK-2, immortalized human proximal tubule epithelial, and primary cultures of human proximal tubular cells” (Pharmacology Research & Perspectives, 2015)
Counter-ions that a name gives are not always drawn.

Columns and labels:
Assay type in all cases: cell-based, human
NGAL [1] = assay: NGAL protein ELISA in hRPTECs; set-up: key to Upregulation of NGAL hRPTECs P: +: statistically significant increase; −: no significant increase; settings: for Upregulation of NGAL hRPTECs P: protein levels in culture medium, 72 h time point
Method: (§1) HK-2 cells (ATCC CRL-2190; Manassas, VA) were maintained in DMEM/F12 (Life Technologies; Sydney, NSW, Australia) supplemented with 5 μg/mL insulin, 5 μg/mL transferrin, 5 ng/mL sodium selenite (ITS; Roche; […] (passage 2) and culture kits were purchased from Lonza. […] were maintained in Renal Epithelial Cell BulletKitTM (CC-3190, Lonza) at 37°C and 5% CO2 atmosphere. Cells were passaged to 96-well plates with a density of 4000 cells/well. After 24 h culture, compounds with different concentration series were added into each well and incubated for 4, 24, 48, and 72 h. KIM-1 (DY1750), NGAL (DY1757), and M-CSF (DY216) Duo-Set® ELISA kits were purchased from R&D systems (Minneapolis, MN). Sandwich-ELISA experiments were conducted following the manufacturer's instructions with slight modifications. A 96-well microplate (MaxiSorp®, Nunc, Thermo Scientific, NSW, Australia) was coated with 100 μL of capture antibodies (diluted 1:200 in PBS) and incubated overnight. The plate was then washed twice with washing buffer (0.05% Tween 20 in PBS, pH 7.4) and blocked by adding 300 μL of blocking buffer (1% bovine serum albumin (BSA) in PBS) for 1 h at room temperature. After washing two times with PBS, 100 μL of samples (cell culture media or cell lysates) or standards were then added to each well and incubated for 2 h at room temperature. The biotinylated detection antibodies were then diluted in blocking buffer, added to each well and incubated for 2 h. Horseradish peroxidase (HRP)-labeled streptavidin (100 μL) was then added to bind to detection antibodies. To each well, 100 μL of substrate solution (1:1 mixture of H2O2 and tetramethylbenzidine) was added and incubated for 20 min before reaction termination with 50 μL of stop solution (2N H2SO4). The optical density of each well was measured at 450 nm using a POLARstar Omega plate reader (BMG Labtech). All assays were performed at least three times, with at least two technical replicates in each assay.

NGAL [2] = assay: NGAL protein ELISA in HK-2 cells; set-up: key: +: statistically significant increase; −: no significant increase; settings: protein levels in culture medium; 72 h time point
Method: as §1

KIM-1 [3] = assay: KIM-1 protein ELISA in HK-2 cells; set-up: key: +: statistically significant increase; −: no significant increase; settings: protein levels in culture medium; 72 h time point
Method: as §1

NGAL [4] = assay: NGAL protein ELISA in freshly isolated hPT cells; settings: for NGAL protein upregulation in hPT cells: high doses, within 24 h; for Upregulation of NGAL hPT P(L): protein levels in cell lysates, table title says 72 h time point
Method: (§2) hPT cells were derived from whole human kidneys procured by the International Institute for the Advancement of Medicine (Edison, NJ). All tissues were scored by a pathologist as normal (i.e., derived from noncancerous, nondiseased tissue). […] Whole kidneys were perfused with Wisconsin medium and kept on ice until they arrived at the laboratory, which was usually within 24 h of removal from the donor. All buffers were continuously bubbled with 95% O2/5% CO2 and were maintained at 37°C. Minced cortical pieces from whole kidneys were subjected to collagenase digestion for 60 min, after which the supernatant was filtered through a 70-μm mesh filter to remove tissue fragments, centrifuged at 150g for 7 min, and the pellet resuspended in Dulbecco’s Modified Eagle’s Medium: […] Approximately, 5–7 × 10^6 cells were obtained per 1 g of human kidney cortical tissue. […] Composition of this supplemented medium was based on earlier work establishing optimal conditions for primary culture of rat PT cells (Lash et al., [1995]). Basal medium was a 1:1 mixture of DMEM/F12. […] Cultures were grown at 37°C in a humidified incubator under an atmosphere of 95% air/5% CO2 at pH 7.4. Cultures were grown to approximately 80–90% confluence (generally 5–6 days) prior to experiments. Cells were harvested by either scraping the flasks with a Teflon scraper or by brief incubation with Cellstripper (Cellgro, Herndon, VA) (in Ca^2+- and Mg^2+-free Hanks’ buffer). KIM-1 (DY1750), NGAL (DY1757), and M-CSF (DY216) Duo-Set® ELISA kits were purchased from R&D systems (Minneapolis, MN). Sandwich-ELISA experiments were conducted following the manufacturer’s instructions with slight modifications. A 96-well microplate (MaxiSorp®, Nunc, Thermo Scientific, NSW, Australia) was coated with 100 μL of capture antibodies (diluted 1:200 in PBS) and incubated overnight. The plate was then washed twice with washing buffer (0.05% Tween 20 in PBS, pH 7.4) and blocked by adding 300 μL of blocking buffer (1% bovine serum albumin (BSA) in PBS) for 1 h at room temperature. After washing two times with PBS, 100 μL of samples (cell culture media or cell lysates) or standards were then added to each well and incubated for 2 h at room temperature. The biotinylated detection antibodies were then diluted in blocking buffer, added to each well and incubated for 2 h. Horseradish peroxidase (HRP)-labeled streptavidin (100 μL) was then added to bind to detection antibodies. To each well, 100 μL of substrate solution (1:1 mixture of H2O2 and tetramethylbenzidine) was added and incubated for 20 min before reaction termination with 50 μL of stop solution (2N H2SO4). The optical density of each well was measured at 450 nm using a POLARstar Omega plate reader (BMG Labtech). All assays were performed at least three times, with at least two technical replicates in each assay.

KIM-1 [5] = assay: KIM-1 protein ELISA in freshly isolated hPT cells; settings: for KIM-1 protein increase in hPT cell lysate: 24 h treatment; for KIM-1 protein upregulation in hPT cells: high doses, within 24 h; for Upregulation of KIM-1 hPT P(L): protein levels in cell lysates, table title says 72 h time point
Method: as §2

| Molecule | Upregulation of NGAL hRPTECs P (NGAL [1]) | Upregulation of NGAL HK-2 P (NGAL [2]) | Upregulation of KIM-1 HK-2 P (KIM-1 [3]) | NGAL protein upregulation in hPT cells (NGAL [4]) | Upregulation of NGAL hPT P(L) (NGAL [4]) | KIM-1 protein increase in hPT cell lysate (KIM-1 [5]; 100 μmol/L) [fold] | KIM-1 protein upregulation in hPT cells (KIM-1 [5]) | Upregulation of KIM-1 hPT P(L) (KIM-1 [5]) | KIM-1 protein increase in hPT cell lysate (KIM-1 [5]; 300 μmol/L) | NGAL protein upregulation in hRPTECs (NGAL [1]; 4 h, culture medium (Fig. S5C)) |
| --- | --- | --- | --- | --- | --- | --- | --- | --- | --- | --- |
| N.N.[Cl][Pt][Cl] [Cisplatin, cisplatin] | + | − | − | significant upregulation | >60-fold | 32 | significant upregulation | >32-fold |  |  |
| CNC(C)C1CCC(N)C(OC2C(N)CC(N)C(OC3OCC(C)(O)C(NC)C3O)C2O)O1 (stereo not shown) [Gentamicin, gentamicin sulfate] | + | − | − | significant upregulation | >60-fold |  | significant upregulation | Greater than fivefold | fivefold |  |
| Colistin sulfate | + | − | − | significant upregulation | >60-fold |  | significant upregulation | >12-fold | 12 fold | significant upregulation |
